According to patent US20070207228A1, “Composition for Regulating the Trophism of Hair Follicles and the Cutaneous Production of Sebum and Use Thereof in Androgenic Alopecia” (priority 2004, published 2007):
Several values for one entry are separate records, joined by “and”; a condition that tells them apart may be missing. Identical values can stand only once.

System: 5-α-reductase
Test: in vivo inhibiting activity of 5-α-reductase: plasmatic DHT concentration after oral administration
Set-up: species or system Sprague-Dawley rats
Protocol: Determination in vivo of the inhibiting activity of 5-α-reductase of an extract of Boehmeria nippononivea.
For the in-vivo study of the inhibition of 5-α-reductase, Sprague-Dawley (Charles River Italia) male adult rats were used having a body weight of 200-250 g.
The animals were stalled under standard conditions: at a temperature of 22/23° C., with 65% relative humidity, by exposing them to light cycles of 12 h light/12 h darkness.
A standard diet in pellets (standard diet, Charles River) was administered to the rats, together with water ad libitum.
Samples were taken from the rear-orbital plexus, immediately before the pharmacological treatment (T0) and then at 3, 6 and 8 hours after administration.
The administration of the substance being tested was effected orally.
Furthermore, contemporarily with each sampling of the treated animals, samples were also taken from non-treated animals to determine the basal analyte level.
Plasma obtained from the whole blood, treated with EDTA after centrifugation, was preserved at −20° C. until analysis.
The plasmatic concentrations of DHT (dihydrotestosterone) were determined by a commercial kit (DSL, Chematil, Angri, SA) after extraction of the samples.
All the samples of an experimental set were analyzed together to reduce the inter analytical variability.

With `CC(C)(C)NC(=O)[C@H]1CC[C@H]2[C@@H]3CC[C@H]4NC(=O)C=C[C@]4(C)[C@H]3CC[C@]12C` [Finasteride] the “plasmatic DHT concentration, individual animals” value (Finasteride 1 mg oral, 3 hrs) was 298.09 and 505.28 and 300.00 and 569.62 and 404.63 and 530.00, the “plasmatic DHT concentration, average” value (Finasteride 1 mg oral, 3 hrs, n = 6) was 434.603 and the “plasmatic DHT concentration, individual animals” value (Finasteride 1 mg oral, 6 hrs) was 404.13 and 565.00 and 379.59 and 592.06 and 148.51 and 420.07. The “plasmatic DHT concentration, average” value (Finasteride 1 mg oral, 6 hrs, n = 6) was 418.227, the “plasmatic DHT concentration, individual animals” value (Finasteride 1 mg oral, 8 hrs) was 706.70 and 140.06 and 503.90 and 530.07 and 173.11 and 110.00 and the “plasmatic DHT concentration, average” value (Finasteride 1 mg oral, 8 hrs, n = 6) was 360.640. The “plasmatic DHT concentration, individual animals” value (Finasteride 5 mg oral, 3 hrs) was 217.10 and 618.58 and 151.18 and 640.97 and 924.20 and 569.38, the “plasmatic DHT concentration, average” value (Finasteride 5 mg oral, 3 hrs, n = 6) was 520.235 and the “plasmatic DHT concentration, individual animals” value (Finasteride 5 mg oral, 6 hrs) was 205.21 and 103.62 and 54.35 and 60.67 and 49.67 and 128.25 and 176.92 and 81.23. For the same compound, the “plasmatic DHT concentration, average” value (Finasteride 5 mg oral, 6 hrs, n = 8) was 107.490, the “plasmatic DHT concentration, individual animals” value (Finasteride 5 mg oral, 8 hrs) was 201.56 and 108.76 and 745.40 and 576.60 and 250.90 and 300.12 and the “plasmatic DHT concentration, average” value (Finasteride 5 mg oral, 8 hrs, n = 6) was 363.890. For the same compound, the “trend of the DHT concentration following administration” value (oral, 3, 6 and 8 hours after administration) was 8 hours after treatment, increases returning to the basal levels.
